Results published in publication PMC8662641, “Site-Specific Labeling of Endogenous Proteins Using CoLDR Chemistry” (Journal of the American Chemical Society, 2021).

Target: BTK kinase domain (Homo sapiens, UniProt Q06187)
Assay: Time-dependent labeling of BTK, kinact and Ki of 1b
Type: binding
Parameters: BTK kinase domain was expressed and purified as previously reported; made in house
Procedure: To assess the kinetic parameters of labeling, we performed a time-dependent incubation experiment of BTK (200 nM) with various concentrations of 1b (300–2000 nM, 20 mM Tris, pH 8, 14 °C; […]. page 9:
Figure S5. Determination of kinact and Ki parameters of CoLDR probe 1b. A. Depletion of unlabelled BTK (200 nM) […]
reaction was monitored by LC-MS. B. The rate constants as extrapolated from A. as a function of the concentration […]
(1 picture or pasted object on this page, not shown here)
Analysis was done using MaxQuant 1.6.3.4. The sequence of BTK was used for the analysis. The digestion enzyme was set to Trypsin with a maximum number of missed cleavages of 0.
Carbamidomethyl and the modification by the molecule were included as variable modifications on cysteine. The “Re-quantify” option was enabled. Contaminants were included. […] The triplicate measured for each compound (or for DMSO-treated protein) was analyzed separately.
Following MaxQuant analysis, only fully cleaved peptides were quantified and cysteine-containing peptides that were not modified by either iodoacetamide or compound were ignored.
The intensity for each peptide was calculated as the average of the three triplicates. […]
from the stock solution. […] The labeling percentage for a compound was determined as the labeling of a specific compound (alone or together with other compounds) divided by the overall detected protein species. […]

BTK kinase domain, sequence (Q06187 402-655 limits assumed): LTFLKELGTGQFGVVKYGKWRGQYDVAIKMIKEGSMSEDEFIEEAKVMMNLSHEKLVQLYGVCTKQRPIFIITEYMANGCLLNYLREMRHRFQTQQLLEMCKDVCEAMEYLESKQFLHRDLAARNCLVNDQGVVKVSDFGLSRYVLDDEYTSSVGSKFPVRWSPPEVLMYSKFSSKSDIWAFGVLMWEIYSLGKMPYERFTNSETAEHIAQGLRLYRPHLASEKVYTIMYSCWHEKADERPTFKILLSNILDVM

reversible binding component weaker than ibrutinib (1b Ki compared with reported ibrutinib Ki): about 5 fold | kinact (BTK 200 nM, 1b 300–2000 nM, 20 mM Tris, pH 8, 14 °C): 0.0278 s⁻¹
SMILES: C#CCCNC(=O)C(=C)CN1CCC[C@@H](n2nc(-c3ccc(Oc4ccccc4)cc3)c3c(N)ncnc32)C1 [1b]
